Laboratory results taken from ChEMBL document CHEMBL5696444 (Nat Commun, 2017).
The source made the active and inactive calls. The rule behind the calls is not given here.

Legend:
[1] = biological target: Mast/stem cell growth factor receptor Kit (Homo sapiens) (UniProt P10721); experiment: Inhibition of KIT (unknown origin) at 1000 nM in the presence of ATP by Kinome scan method relative to control
[2] = biological target: Mitogen-activated protein kinase 3 (Homo sapiens) (UniProt P27361); experiment: Inhibition of MAPK3 (unknown origin) at 1000 nM in the presence of ATP by Kinome scan method relative to control
[3] = biological target: 3-phosphoinositide-dependent protein kinase 1 (PDPK1) (Homo sapiens) (UniProt O15530); experiment: Inhibition of PDK1 Direct (unknown origin) at 1000 nM in the presence of ATP by Kinome scan method relative to control
HCT-116 [4] = experiment: Induction of cell cycle arrest in human HCT-116 cells assessed as S phase at 0.1 uM incubated for 6 hrs by flow cytometry analysis (Rvb=39.3%); assay type: functional
HCT-116 [5] = experiment: Induction of cell cycle arrest in human HCT-116 cells assessed as G2/M phase at 1 uM incubated for 24 hrs by flow cytometry analysis (Rvb=17.9%); assay type: functional
HCT-116 [6] = experiment: Induction of cell cycle arrest in human HCT-116 cells assessed as sub G0/G1 phase at 0.1 uM incubated for 24 hrs by flow cytometry analysis (Rvb=2.5%); assay type: functional
[7] = biological target: Homeodomain-interacting protein kinase 2 (Homo sapiens) (UniProt Q9H2X6); experiment: Inhibition of HIPK2 (unknown origin) at 100 nM in the presence of ATP by Kinome scan method relative to control
HCT-116 [8] = experiment: Induction of apoptosis in human HCT-116 cells assessed as necrosis cells at 0.1 uM incubated for > 6 hrs by annexin V/PI staining based analysis (Rvb=0.55%); assay type: functional
[9] = biological target: Proto-oncogene tyrosine-protein kinase ROS (Homo sapiens) (UniProt P08922); experiment: Inhibition of ROS1 (unknown origin) at 100 nM in the presence of ATP by Kinome scan method relative to control
HCT-116 [10] = experiment: Induction of cell cycle arrest in human HCT-116 cells assessed as S phase at 5 uM incubated for 24 hrs by flow cytometry analysis (Rvb=46.4%); assay type: functional
[11] = biological target: Cyclin-dependent kinase 5/CDK5 activator 1 (Homo sapiens) (UniProt Q00535+Q15078); experiment: Inhibition of CDK5/p35 (unknown origin) at 1000 nM in the presence of ATP by Kinome scan method relative to control; assay type: protein-complex assay
HCT-116 [12] = experiment: Induction of cell cycle arrest in human HCT-116 cells assessed as G0/G1 phase at 5 uM incubated for 6 hrs by flow cytometry analysis (Rvb=35.0%); assay type: functional
[13] = biological target: Dual specificity protein kinase CLK1 (Homo sapiens) (UniProt P49759); experiment: Inhibition of CLK1 (unknown origin) at 123 nM in the presence of ATP by Kinome scan method relative to control; details: time > 6.0 hrs
[14] = biological target: Dual specificity protein kinase CLK1 (Homo sapiens) (UniProt P49759); experiment: Inhibition of CLK (unknown origin) in human HCT-116 cells assessed as decrease in SRSF4 phosphorylation level at 0.5 to 1.0 uM incubated for 6 hrs by immunoblot analysis; assay type: cell-based; details: dose 0.5-1 µM
HCT-116 [15] = experiment: Induction of apoptosis in human HCT-116 cells assessed as late apoptosis at 10 uM incubated for > 6 hrs by annexin V/PI staining based analysis (Rvb=6.12%); assay type: functional
[16] = biological target: Dual specificity tyrosine-phosphorylation-regulated kinase 1B (Homo sapiens, UniProt Q9Y463); experiment: Inhibition of DYRK1B (unknown origin) at 1110 nM in the presence of ATP by Kinome scan method relative to control; details: time > 6.0 hrs
[17] = biological target: SRSF protein kinase 1 (Homo sapiens) (UniProt Q96SB4); experiment: Inhibition of SRPK1 (unknown origin) at 1110 nM in the presence of ATP by Kinome scan method relative to control; details: time > 6.0 hrs
HCT-116 [18] = experiment: Induction of cell cycle arrest in human HCT-116 cells assessed as G0/G1 phase at 0.5 uM incubated for 24 hrs by flow cytometry analysis (Rvb=35.7%); assay type: functional
HCT-116 [19] = experiment: Induction of cell cycle arrest in human HCT-116 cells assessed as S phase at 1 uM incubated for 24 hrs by flow cytometry analysis (Rvb=46.4%); assay type: functional
[20] = biological target: Dual specificity mitogen-activated protein kinase kinase 1 (Homo sapiens) (UniProt Q02750); experiment: Inhibition of MAP2K1 (unknown origin) at 100 nM in the presence of ATP by Kinome scan method relative to control
[21] = biological target: Serine/threonine-protein kinase pim-1 (Homo sapiens) (UniProt P11309); experiment: Inhibition of PIM1 (unknown origin) at 1000 nM in the presence of ATP by Kinome scan method relative to control
HCT-116 [22] = experiment: Induction of cell cycle arrest in human HCT-116 cells assessed as G2/M phase at 10 uM incubated for 24 hrs by flow cytometry analysis (Rvb=17.9%); assay type: functional
[23] = biological target: Angiopoietin-1 receptor (Homo sapiens) (UniProt Q02763); experiment: Inhibition of TEK (unknown origin) at 100 nM in the presence of ATP by Kinome scan method relative to control
[24] = biological target: Casein kinase I isoform delta (Homo sapiens) (UniProt P48730); experiment: Inhibition of CSNK1D (unknown origin) at 100 nM in the presence of ATP by Kinome scan method relative to control
[25] = biological target: Dual specificity mitogen-activated protein kinase kinase 2 (Homo sapiens) (UniProt P36507); experiment: Inhibition of MAP2K2 (unknown origin) at 100 nM in the presence of ATP by Kinome scan method relative to control
[26] = biological target: Inhibitor of nuclear factor kappa-B kinase subunit beta (Homo sapiens) (UniProt O14920); experiment: Inhibition of IKBKB (unknown origin) at 100 nM in the presence of ATP by Kinome scan method relative to control
HCT-116 [27] = experiment: Induction of cell cycle arrest in human HCT-116 cells assessed as sub G0/G1 phase at 10 uM incubated for 24 hrs by flow cytometry analysis (Rvb=2.5%); assay type: functional
[28] = biological target: CDK7/Cyclin H/MNAT1 (Homo sapiens) (UniProt P51946+P50613+P51948); experiment: Inhibition of CDK7/cyclin H/MNAT1 (unknown origin) at 100 nM in the presence of ATP by Kinome scan method relative to control; assay type: protein-complex assay
[29] = biological target: Mitogen-activated protein kinase 1 (Homo sapiens) (UniProt P28482); experiment: Inhibition of MAPK1 (unknown origin) at 1000 nM in the presence of ATP by Kinome scan method relative to control
[30] = biological target: Dual specificity protein kinase CLK3 (Homo sapiens) (UniProt P49761); experiment: Inhibition of CLK3 (unknown origin) at 1110 nM in the presence of ATP by Kinome scan method relative to control; details: time > 6.0 hrs
[31] = biological target: Casein kinase I isoform alpha (Homo sapiens) (UniProt P48729); experiment: Inhibition of CSNK1A1 (unknown origin) at 1000 nM in the presence of ATP by Kinome scan method relative to control

Chain of Dual specificity protein kinase CLK1 (Homo sapiens) (P49759 whole entry, looked up): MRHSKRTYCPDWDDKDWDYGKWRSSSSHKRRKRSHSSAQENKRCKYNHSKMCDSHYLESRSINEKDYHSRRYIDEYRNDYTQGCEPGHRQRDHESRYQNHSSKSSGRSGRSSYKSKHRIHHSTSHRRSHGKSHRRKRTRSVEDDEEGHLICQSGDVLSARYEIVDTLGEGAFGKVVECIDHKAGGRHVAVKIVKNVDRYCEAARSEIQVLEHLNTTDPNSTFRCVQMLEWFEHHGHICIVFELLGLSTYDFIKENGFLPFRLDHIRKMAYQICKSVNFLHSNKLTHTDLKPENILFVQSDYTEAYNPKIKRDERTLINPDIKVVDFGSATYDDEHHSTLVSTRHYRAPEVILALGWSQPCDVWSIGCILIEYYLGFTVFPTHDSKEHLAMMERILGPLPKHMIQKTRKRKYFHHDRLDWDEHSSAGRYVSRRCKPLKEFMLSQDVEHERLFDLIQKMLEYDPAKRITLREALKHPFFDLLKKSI
Chain of Dual specificity mitogen-activated protein kinase kinase 1 (Homo sapiens) (Q02750 whole entry): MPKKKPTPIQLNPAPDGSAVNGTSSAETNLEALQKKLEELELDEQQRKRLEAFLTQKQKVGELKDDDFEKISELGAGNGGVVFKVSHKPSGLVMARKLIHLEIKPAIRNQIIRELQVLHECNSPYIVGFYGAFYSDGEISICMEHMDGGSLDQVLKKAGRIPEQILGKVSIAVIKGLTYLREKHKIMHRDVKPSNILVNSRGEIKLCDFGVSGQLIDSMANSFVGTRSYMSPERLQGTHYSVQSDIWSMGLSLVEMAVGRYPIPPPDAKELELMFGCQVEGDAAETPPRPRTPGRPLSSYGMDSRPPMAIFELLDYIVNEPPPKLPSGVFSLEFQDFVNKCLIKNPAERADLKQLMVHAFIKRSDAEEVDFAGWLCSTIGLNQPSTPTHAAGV
Chain of Mast/stem cell growth factor receptor Kit (Homo sapiens) (P10721 whole entry): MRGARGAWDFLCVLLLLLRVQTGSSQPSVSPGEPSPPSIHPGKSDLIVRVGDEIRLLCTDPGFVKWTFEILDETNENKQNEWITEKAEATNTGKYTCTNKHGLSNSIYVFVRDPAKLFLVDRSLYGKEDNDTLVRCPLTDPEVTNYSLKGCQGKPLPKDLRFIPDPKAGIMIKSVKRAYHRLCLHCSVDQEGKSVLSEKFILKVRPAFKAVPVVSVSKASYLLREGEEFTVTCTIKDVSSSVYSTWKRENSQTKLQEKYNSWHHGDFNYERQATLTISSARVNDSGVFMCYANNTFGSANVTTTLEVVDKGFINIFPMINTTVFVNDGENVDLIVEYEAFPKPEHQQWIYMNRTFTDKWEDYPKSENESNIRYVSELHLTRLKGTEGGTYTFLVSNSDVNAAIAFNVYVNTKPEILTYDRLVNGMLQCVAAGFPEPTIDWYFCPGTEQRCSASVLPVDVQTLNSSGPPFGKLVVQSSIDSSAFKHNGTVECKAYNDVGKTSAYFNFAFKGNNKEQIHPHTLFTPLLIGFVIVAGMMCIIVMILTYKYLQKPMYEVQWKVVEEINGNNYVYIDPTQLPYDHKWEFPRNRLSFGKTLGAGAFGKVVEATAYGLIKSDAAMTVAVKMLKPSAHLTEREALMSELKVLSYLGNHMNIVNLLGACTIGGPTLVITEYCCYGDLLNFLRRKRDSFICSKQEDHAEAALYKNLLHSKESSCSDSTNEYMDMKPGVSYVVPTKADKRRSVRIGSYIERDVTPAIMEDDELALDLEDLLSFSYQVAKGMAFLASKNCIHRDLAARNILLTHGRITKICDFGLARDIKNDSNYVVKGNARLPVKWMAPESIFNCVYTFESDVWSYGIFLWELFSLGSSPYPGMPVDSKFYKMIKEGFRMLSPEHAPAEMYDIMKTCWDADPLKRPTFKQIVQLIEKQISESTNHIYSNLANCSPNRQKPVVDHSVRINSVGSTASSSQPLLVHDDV
Chain of Casein kinase I isoform delta (Homo sapiens) (P48730 whole entry, looked up, canonical isoform): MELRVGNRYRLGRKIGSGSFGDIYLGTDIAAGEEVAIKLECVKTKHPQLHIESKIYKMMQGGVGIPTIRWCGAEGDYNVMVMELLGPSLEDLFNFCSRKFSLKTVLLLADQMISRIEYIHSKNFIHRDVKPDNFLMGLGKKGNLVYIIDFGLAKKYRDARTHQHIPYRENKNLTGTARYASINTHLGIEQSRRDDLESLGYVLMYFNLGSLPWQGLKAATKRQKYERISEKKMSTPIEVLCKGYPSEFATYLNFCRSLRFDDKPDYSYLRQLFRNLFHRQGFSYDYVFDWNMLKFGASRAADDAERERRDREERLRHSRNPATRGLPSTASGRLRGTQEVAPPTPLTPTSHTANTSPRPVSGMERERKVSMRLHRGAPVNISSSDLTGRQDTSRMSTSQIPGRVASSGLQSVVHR
Chain of Dual specificity tyrosine-phosphorylation-regulated kinase 1B (Q9Y463 whole entry, looked up): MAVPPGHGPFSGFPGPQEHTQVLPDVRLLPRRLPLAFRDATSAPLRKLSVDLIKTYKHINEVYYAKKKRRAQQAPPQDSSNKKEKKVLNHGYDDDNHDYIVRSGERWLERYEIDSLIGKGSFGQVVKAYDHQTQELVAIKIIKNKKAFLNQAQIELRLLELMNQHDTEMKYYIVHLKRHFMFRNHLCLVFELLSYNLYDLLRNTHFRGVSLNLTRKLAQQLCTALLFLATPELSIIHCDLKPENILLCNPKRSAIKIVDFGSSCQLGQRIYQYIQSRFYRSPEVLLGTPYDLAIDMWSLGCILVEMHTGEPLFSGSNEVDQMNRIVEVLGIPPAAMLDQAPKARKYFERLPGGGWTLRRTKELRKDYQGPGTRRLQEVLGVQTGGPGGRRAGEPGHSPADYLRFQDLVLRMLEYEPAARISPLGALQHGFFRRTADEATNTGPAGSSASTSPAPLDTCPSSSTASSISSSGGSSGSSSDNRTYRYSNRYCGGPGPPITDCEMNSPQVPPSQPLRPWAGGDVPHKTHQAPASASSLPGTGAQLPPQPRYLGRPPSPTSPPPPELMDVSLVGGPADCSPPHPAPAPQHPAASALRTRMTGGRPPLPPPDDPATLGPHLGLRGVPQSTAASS
Chain of Homeodomain-interacting protein kinase 2 (Homo sapiens) (Q9H2X6 whole entry, looked up): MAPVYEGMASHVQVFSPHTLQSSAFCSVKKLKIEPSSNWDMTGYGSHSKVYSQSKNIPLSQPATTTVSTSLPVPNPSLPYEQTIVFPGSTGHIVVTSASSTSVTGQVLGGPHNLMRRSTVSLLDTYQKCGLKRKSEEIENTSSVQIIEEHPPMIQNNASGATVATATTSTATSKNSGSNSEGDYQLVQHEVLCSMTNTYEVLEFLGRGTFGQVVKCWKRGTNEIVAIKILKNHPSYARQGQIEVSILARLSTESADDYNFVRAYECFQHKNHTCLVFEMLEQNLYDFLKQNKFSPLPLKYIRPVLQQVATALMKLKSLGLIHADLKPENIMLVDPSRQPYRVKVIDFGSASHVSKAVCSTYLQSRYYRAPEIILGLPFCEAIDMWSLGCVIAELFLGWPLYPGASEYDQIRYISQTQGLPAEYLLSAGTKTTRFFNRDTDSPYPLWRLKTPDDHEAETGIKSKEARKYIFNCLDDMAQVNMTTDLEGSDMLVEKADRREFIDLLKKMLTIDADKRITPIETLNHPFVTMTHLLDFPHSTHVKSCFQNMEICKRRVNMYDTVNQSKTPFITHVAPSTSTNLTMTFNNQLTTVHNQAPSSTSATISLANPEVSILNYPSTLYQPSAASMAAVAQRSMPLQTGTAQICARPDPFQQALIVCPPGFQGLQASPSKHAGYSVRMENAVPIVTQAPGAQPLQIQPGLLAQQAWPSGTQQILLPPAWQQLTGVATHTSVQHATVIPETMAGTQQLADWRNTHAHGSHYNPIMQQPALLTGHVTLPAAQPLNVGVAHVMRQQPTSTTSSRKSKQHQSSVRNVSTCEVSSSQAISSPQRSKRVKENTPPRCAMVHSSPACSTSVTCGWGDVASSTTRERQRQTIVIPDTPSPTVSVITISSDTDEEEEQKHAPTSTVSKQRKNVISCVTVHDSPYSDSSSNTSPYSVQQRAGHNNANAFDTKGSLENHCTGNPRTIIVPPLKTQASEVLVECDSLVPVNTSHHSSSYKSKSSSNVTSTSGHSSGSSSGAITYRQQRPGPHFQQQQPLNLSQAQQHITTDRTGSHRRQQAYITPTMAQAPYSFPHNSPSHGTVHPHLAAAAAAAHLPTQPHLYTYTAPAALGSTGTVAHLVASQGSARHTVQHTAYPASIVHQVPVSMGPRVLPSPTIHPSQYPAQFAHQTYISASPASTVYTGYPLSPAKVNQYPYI
Chain of SRSF protein kinase 1 (Homo sapiens) (Q96SB4 whole entry): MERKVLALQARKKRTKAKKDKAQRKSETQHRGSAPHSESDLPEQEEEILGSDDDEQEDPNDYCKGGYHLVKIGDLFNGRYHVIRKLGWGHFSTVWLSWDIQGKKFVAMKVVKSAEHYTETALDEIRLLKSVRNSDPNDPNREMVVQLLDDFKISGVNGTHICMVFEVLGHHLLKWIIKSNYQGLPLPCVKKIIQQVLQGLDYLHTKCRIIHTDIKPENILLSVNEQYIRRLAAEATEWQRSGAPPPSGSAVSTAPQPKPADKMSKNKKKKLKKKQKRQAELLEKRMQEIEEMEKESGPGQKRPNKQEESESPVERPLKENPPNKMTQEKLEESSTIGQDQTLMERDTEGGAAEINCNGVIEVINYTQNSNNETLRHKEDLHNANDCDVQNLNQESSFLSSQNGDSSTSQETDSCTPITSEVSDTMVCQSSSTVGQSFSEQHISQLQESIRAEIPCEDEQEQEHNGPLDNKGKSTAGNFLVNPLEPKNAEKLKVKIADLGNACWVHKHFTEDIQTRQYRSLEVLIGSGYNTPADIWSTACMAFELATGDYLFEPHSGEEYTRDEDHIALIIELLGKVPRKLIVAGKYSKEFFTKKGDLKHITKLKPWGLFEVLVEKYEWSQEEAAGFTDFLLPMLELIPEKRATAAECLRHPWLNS

SMILES: CN1CCN(C(=O)C(C)(C)c2ccc(C(=O)Nc3cn4cc(-c5ccncc5)ccc4n3)cc2)CC1 [T3-CLK]
- inhibition [1]: 37%
- inhibition [2]: 6%
- inhibition [3]: 2%
- Activity (HCT-116 [4]): 45.5%
- Activity (HCT-116 [5]): 46%
- Activity (HCT-116 [6]): 2.8%
- inhibition [7]: -4%
- Activity (HCT-116 [8]): 0.75%
- inhibition [9]: -4%
- Activity (HCT-116 [10]): 45.5%
- inhibition [11]: -1%
- Activity (HCT-116 [12]): 28.1%
- inhibition [13]: 91%
- inhibition [14]: Active
- Activity (HCT-116 [15]): 8.13%
- inhibition [16]: 94%
- inhibition [17]: -3%
- Activity (HCT-116 [18]): 11.4%
- Activity (HCT-116 [19]): 46.7%
- inhibition [20]: 12%
- inhibition [21]: 11%
- Activity (HCT-116 [22]): 37.7%
- inhibition [23]: 0%
- inhibition [24]: -3%
- inhibition [25]: 17%
- inhibition [26]: -6%
- Activity (HCT-116 [27]): 19%
- inhibition [28]: 1%
- inhibition [29]: 4%
- inhibition [30]: 89%
- inhibition [31]: -3%
